Laboratory results as given in PubChem BioAssay (NCI).
Where “and” joins values, the source holds several entries; their conditions need not be identical. Identical values can stand only once.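 A five-concentration, 48-hour dose response in 96-well plates underlies each endpoint, interpolated linearly between surrounding concentrations. Here, GI50 denotes the concentration required for 50% inhibition of growth. At the TGI there is no net growth.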

Test system: MDA-MB-468 breast
Assay: inhibition of tumour cell growth, NCI panel, 48 h

Compound	GI50	TGI
CC(C)CNC(=O)c1ccc(NC(=O)N(CC(C)C)C(=O)c2ccc(N)c(OCCCN)c2)c(OCCCN=C(N)N)c1	> 62500 nM	> 62500 nM
NC(=O)c1cc(Cl)ccc1NC(=O)COc1ccccc1	1740 nM	> 100000 nM
O=c1[nH]c2c3ccncc3cc(-c3cccc(Cl)c3)c2c2cnccc12	> 100000 nM	> 100000 nM
CCOC(=O)C#Cc1c(C(=O)OCC)nnn1Cc1ccc(C(F)(F)F)cc1	1880 nM	4050 nM
N=C(N)c1ccc(-c2ccc(-c3cccs3)o2)cc1	1720 nM	3400 nM
O=C(Nc1ccc(-n2ccc3c(NC(=O)c4ccccc4)ncnc32)cc1)c1ccc(Cl)c(C(F)(F)F)c1	2860 nM	9230 nM
CO[C@H]1C[C@@H]2CC[C@@H](C)[C@@](O)(O2)C(=O)C(=O)N2CCCC[C@H]2C(=O)O[C@H]([C@H](C)C[C@@H]2CC[C@@H](O)[C@H](OC)C2)CC(=O)[C@H](C)C=C(C)[C@@H](O)[C@@H](OC)C(=O)[C@H](C)C[C@H](C)/C=C/C=C/C=C1C	0.0364 nM and 0.315 nM	13400 nM
Nc1c(C(=O)c2cccc(-c3ccncc3)c2)cnn1-c1ccc(F)cc1	4420 nM	> 25000 nM
C/C(=C\C(=N\N=C(N)N)c1ccc(Cl)cc1)c1ccc(Cl)cc1	125 nM	1460 nM
COc1cccc(-n2ncc3c(N/N=C/c4cccc(F)c4)ncnc32)c1	5440 nM	13600 nM
CN1C(=O)C23CC4(C56CC78SSC(CO)(C(=O)N7C5Nc5ccccc56)N(C)C8=O)c5ccccc5NC4N2C(=O)C1(CO)SS3 (stereo not drawn)	< 24.1 nM	60.6 nM
CCN1CCN(Cc2ccc(NC(=O)c3nc4ccc5[nH]ncc5c4c4c3CCCC4)cc2C(F)(F)F)CC1	893 nM	1790 nM
C1CCC(C(CC2CCCCN2)C2CCCCC2)CC1 (stereo not drawn)	1370 nM	2850 nM
Cc1cnc(NC2CCOCC2)nc1-n1cnc(C(=O)N[C@H](CN)c2cc(F)cc(Cl)c2)c1	2670 nM	11800 nM
N=C(N)c1ccc(-c2ccc(-c3ccc(F)cc3)s2)nc1	1630 nM	3380 nM
c1ccc(-c2cccc(-c3ccccn3)n2)nc1	284 nM	1730 nM
COC(=O)[C@]12CC[C@@H](C(=O)/C=C/c3cccnc3)[C@@H]1[C@H]1CC[C@@H]3[C@@]4(C)C/C(=C/c5cccnc5)C(=O)C(C)(C)[C@@H]4CC[C@@]3(C)[C@]1(C)CC2	272 nM	712 nM
COC(=O)CCC1=C(C)C(C)=N/C1=C\c1[nH]c(-c2ccc[nH]2)cc1OC	647 nM	2700 nM
C=C(C)[C@@H]1CC[C@]2(C)[C@H](CC[C@@H]3[C@@H]([C@@](C)(O)CCC=C(C)C)CC[C@]32C)[C@@]1(C)CCC(=O)N1CCN(C)CC1	5490 nM	18500 nM
c1ccc(-c2nc([P+](c3ccccc3)(c3ccccc3)c3ccccc3)c(N3CCOCC3)o2)cc1	278 nM	1060 nM
CN(C)c1ccc(N=Nc2ccc(Br)cn2)c(O)c1	469 nM	3980 nM

Compound	GI50	TGI
O=C1C=C(Nc2cccnc2)c2ccccc2C1=O	3200 nM	11100 nM
NC1(c2ccc(-c3nc4ccn5c(=O)[nH]nc5c4cc3-c3ccccc3)cc2)CCC1	16.9 nM and 94.3 nM and 62.6 nM	–
CCN1C2=C(SC(=S)C1=C1SC(C(=O)OC)=C(C(=O)OC)S1)SC(=Nc1ccc(OC)cc1)C2=O	1730 nM	3460 nM
Nc1cc2ccccc2c(O)c1O	2190 nM	4750 nM
C#CCN(C)CCCOc1ccc(NCc2ccc(/C=C/C(=O)NO)cc2)cc1Cl	411 nM	3550 nM
Cc1cc(-c2ccc(C3C(C#N)=C(N)Oc4c3c(=O)oc3ccccc43)cc2)cnc1F (stereo not drawn)	17500 nM	82500 nM
CC1CN=C(c2cccc(-c3ccc(-c4ccccc4)o3)c2)N1 (stereo not drawn)	1690 nM	3920 nM
COc1ccc2c(c1)C(=O)c1c-2c(=O)n(CCCCCCC(=O)NO)c2ccccc12	46.3 nM	449 nM
COc1ccc2[nH]c(=O)c(/C=C/C(=O)c3ccccc3OC)cc2c1	336 nM	1650 nM
O=C(C1CC1)N1CC[C@@H](Cc2n[nH]c(=O)n2-c2ccc(-c3ccc4occc4c3)cc2)C1	20300 nM	98100 nM
COC(=O)[C@@H](C)C[C@H](Cc1ccccc1)NC(=O)c1nc([C@@H](C[C@H](C(C)C)N(C)C(=O)[C@@H](NC(=O)[C@H]2CCCCN2C)C(C)C)OC(C)=O)sc1C(C)C	< 3.33 nM	137 nM
O=C(Cc1ccc(OCc2ccccc2)cc1)NCc1ccc2c(c1)OCO2	5900 nM	> 100000 nM
C/C(=N\NC(=O)c1ccccc1N)c1ccccc1O	1710 nM	13800 nM
CCCCCCCCCOc1c(OC)cc(C2CC(=O)Nc3c2c(C)nn3-c2nc3ccccc3[nH]2)cc1OC (stereo not drawn)	891 nM	2090 nM
CNC[C@@H](NC(=O)c1ccc(-c2nc([C@H]3CC[C@H](O)[C@@H](F)C3)cnc2N)cc1F)c1cc(F)cc(Br)c1	13200 nM	28400 nM
C=C1C(=O)O[C@H]2[C@H]1CC/C(COC(=O)NCc1c[nH]c3ccc(Br)cc13)=C\CC[C@@]1(C)O[C@@H]21	451 nM	1930 nM
Oc1ccc(Cl)cc1-c1cc(-c2ccc(Cl)cc2)n[nH]1	1400 nM	6440 nM
COc1cc(/C=C\c2cc(/C=C\c3ccc(O)c(OC)c3)n(C(=O)COc3ccccc3)n2)ccc1O	1710 nM	7390 nM
COc1ccc(-c2cn(-c3cccc(C(=O)/C=C/c4cc(OC)c(OC)c(OC)c4)c3)c(=O)[nH]2)cc1	3070 nM	10800 nM
O=C1C=C2C(=CCOC2O)O1 (stereo not drawn)	425 nM	2760 nM
CN1CCN(Cc2ccc(NC(=O)c3cncc(C#Cc4cnc5ccc(Cl)nn45)c3)cc2C(F)(F)F)CC1	1110 nM	2580 nM
